Experimental findings from PMC7012052, “Discovery of antimicrobial compounds targeting bacterial type FAD synthetases” (Journal of Enzyme Inhibition and Medicinal Chemistry, 2017) are described below.

The target of one test is T1, CaFADS FMNAT activity (Corynebacterium ammoniagenes, UniProt Q59263).
T1 construct: Recombinant CaFADS was overexpressed in BL21 (DE3) E. coli cells and purified as previously described; made in house; host or cells: E. coli BL21 (DE3)
The experiment in a line: FMNAT activity of CaFADS: residual activity, IC50, inhibition mechanism (HPLC). The test is classed as biochemical. To be noted: for remaining activity at 250 µM: pH 7, read-out: % Residual FMNAT activity; for remaining activity at 50 µM: read-out: Residual activity (FMNAT). The method, then: (§1) Then, the RFK and FMNAT reactions were individually assayed in the presence of the HTS hits at 25 °C. Reaction mixtures contained 50 µM ATP, 5 µM RF, 0.4 µM CaFADS in 20 mM PIPES, pH 7.0, 0.8 mM MgCl2, when assaying the RFK activity, and 50 µM ATP, 10 µM FMN, 0.4 µM CaFADS in 20 mM PIPES, pH 7.0, 10 mM MgCl2 when measuring the FMNAT reaction. […] Finally, reactions were stopped by boiling the samples at 100 °C for 5 min, and the precipitated protein was eliminated through centrifugation. The transformation of RF into FMN or FAD was evaluated through flavins separation by HPLC, as previously described. […] When assaying the HTS hits against the FMNAT activity of SpnFADS, similar conditions were used but samples contained 3 mM sodium dithionite to maintain the flavin in its reduced state. Data were processed as previously reported. All the experiments were performed in triplicate.
(§2) Experiments were performed and analysed through HPLC as described above. Positive controls (without any hit compound) were included in every reaction set. DMSO concentration was kept at 2.5% in all samples. All the experiments were performed in triplicate.
All the experiments were carried out in 20 mM PIPES, 10 mM MgCl2, pH 7.0, 2.5% DMSO at 25 °C, being the final reaction volume 500 µl. The reactions were initiated by addition of CaFADS at a final concentration of ∼40 nM, followed by 1 min incubation. The flavin composition of the supernatant was analysed as previously described. All the experiments were performed in triplicate. The effect of the inhibitors on Km and Vmax was determined by fitting the data sets to the Michaelis–Menten model. Additionally, data were globally fit to Lineweaver–Burk equations for competitive, uncompetitive, non-competitive or mixed inhibition, yielding Ki, as well as Ki′ when applying, for each compound (Equations (1–4), respectively).

The subject of test [1] is M. tuberculosis ATCC 27,294. The experiment in a line: MIC by resazurin microplate assay (broth microdilution). The test is classed as cell-based, Mycobacterium tuberculosis. To be noted: Mycobacterium tuberculosis, ATCC27, 144 h; read-out: Minimal inhibitory concentration (MIC) M. tuberculosis. On the technique in general: Alamar Blue is a resazurin reagent that responds to reducing activity.

A further test concerns the target T2, CaFADS RFK activity (Corynebacterium ammoniagenes, UniProt Q59263).
T2 construct: Recombinant CaFADS was overexpressed in BL21 (DE3) E. coli cells and purified as previously described; made in house; host or cells: E. coli BL21 (DE3)
The experiment in a line: RFK activity of CaFADS in the presence of HTS hits (flavins separated by HPLC). Format: biochemical. To be noted: pH 7, read-out: % Residual RFK activity. The method, then: as §1

In the next test the test system is S. pneumoniae ATCC 49619. The experiment in a line: MIC by resazurin microplate assay (broth microdilution). Format: cell-based, Streptococcus pneumoniae. Particulars: Streptococcus pneumoniae, ATCC49619, 10 h; read-out: Minimal inhibitory concentration (MIC) S. pneumoniae.
The target in another test is SpnFADS FMNAT activity (Streptococcus pneumoniae, UniProt A0A0H2UPY5). The experiment in a line: biochemical. To be noted: SpnFADS, 25 °C. The method, then: as §1, §2
SpnFADS FMNAT activity, sequence (A0A0H2UPY5 entry or part of it): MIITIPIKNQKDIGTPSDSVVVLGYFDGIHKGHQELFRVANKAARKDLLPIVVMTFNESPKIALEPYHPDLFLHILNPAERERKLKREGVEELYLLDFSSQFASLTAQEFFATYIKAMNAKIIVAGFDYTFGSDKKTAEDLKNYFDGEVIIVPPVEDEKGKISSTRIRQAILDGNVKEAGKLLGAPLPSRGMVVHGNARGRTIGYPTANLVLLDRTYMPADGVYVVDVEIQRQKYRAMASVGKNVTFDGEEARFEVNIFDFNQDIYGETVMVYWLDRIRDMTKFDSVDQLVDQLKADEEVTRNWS
A further test addresses SpnFADS RFK activity (Streptococcus pneumoniae, UniProt A0A0H2UPY5). Kind of test: biochemical. To be noted: for IC50: compounds assayed 0–100 μM, read-out: RFK activity IC50. The procedure: as §1, §2
The test system of test [2] is C. ammoniagenes ATCC 6872. The experiment in a line: MIC by resazurin microplate assay (broth microdilution). Format: cell-based, Corynebacterium ammoniagenes. Particulars: Corynebacterium ammoniagenes, ATCC6872, 16 h.
Setting [3] is: 100 μM of each compound, n = 3, mean ± SD, read-out: FMNAT activity Res. activity.
The mark [4] stands for this setting: read-out: Minimal inhibitory concentration (MIC) C. ammoniagenes.
[5] abbreviates: read-out: Minimal inhibitory concentration (MIC) C. ammoniagenes, assayed 0.125–64 μM, 16 h at 37 °C, BHI.

≈ marks a conversion by molar mass, not a printed value. Where two headings read alike, the source gives them in different places.

T1 sequence (Q59263 whole entry): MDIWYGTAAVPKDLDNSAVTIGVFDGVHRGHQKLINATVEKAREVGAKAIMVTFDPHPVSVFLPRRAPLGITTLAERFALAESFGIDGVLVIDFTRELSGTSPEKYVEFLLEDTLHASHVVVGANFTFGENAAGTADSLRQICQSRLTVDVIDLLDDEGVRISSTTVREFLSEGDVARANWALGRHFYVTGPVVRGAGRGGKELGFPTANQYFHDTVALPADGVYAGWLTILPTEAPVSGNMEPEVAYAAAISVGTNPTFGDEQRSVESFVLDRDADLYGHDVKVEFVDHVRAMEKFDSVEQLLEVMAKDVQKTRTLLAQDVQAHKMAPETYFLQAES
T2 sequence (Q59263 whole entry): as above
SpnFADS RFK activity, sequence (A0A0H2UPY5 entry or part of it): as the sequence (A0A0H2UPY5 entry or part of it) above

Usually IC50 stands for the concentration at which inhibition is half-maximal. For the compound `Cc1c(Cl)cccc1Nc1ccccc1C(=O)O` [HTS hit 2], the IC50 is 8.9 ± 1 µM against CaFADS FMNAT activity and > 100 µM at SpnFADS RFK activity (SpnFADS, 25 °C). Moreover, the figures for the remaining activity at 250 µM at CaFADS FMNAT activity and on CaFADS RFK activity were ≤ 5% and ≥ 75%, respectively. Besides, the remaining activity at 50 µM on CaFADS FMNAT activity amounted to 41.1 ± 5.2%. Besides, the MIC (in test [1]; in the test with S. pneumoniae ATCC 49619; in test [2] (setting [4])) was > 64 µM each time. Further, the remaining activity at 100 µM at SpnFADS FMNAT activity (setting [3]) was determined as 100 ± 12%; on SpnFADS RFK activity (read-out: RFK activity Res. activity) it was 78 ± 10%.

`O=C(O)c1cc(/N=N/c2ccc(S(=O)(=O)Nc3ccccn3)cc2)ccc1O` [HTS hit 8, sulfasalazine]: the remaining activity at 250 µM at CaFADS FMNAT activity is 5 to 50%; on CaFADS RFK activity, ≥ 75%.

With `CCCCCCCCCCCCCCCC[N+](C)(C)CCN(Cc1ccc(OC)cc1)c1ncccn1` [HTS hit 9, thonzonium bromide], the remaining activity at 250 µM on CaFADS FMNAT activity and on CaFADS RFK activity was ≤ 5% in each case. For the same compound, the MIC is 16 µM in test [1], 1 to 2 µM in the test on S. pneumoniae ATCC 49619, < 2 µM in test [2] (setting [5]) and 2 µM in test [2] (setting [4]). For the same compound, the activity at 100 µM on SpnFADS FMNAT activity (setting [3]) was 7 ± 1%; on SpnFADS RFK activity (SpnFADS, 100 μM of each compound, 25 °C, n = 3, mean ± SD, read-out: RFK activity Res. activity), 0%. Further, the IC50 on SpnFADS FMNAT activity (compounds assayed 0–100 μM, read-out: FMNAT activity IC50) came to 78 ± 6 µM; on SpnFADS RFK activity (SpnFADS, 25 °C), 6 ± 1 µM.

On CaFADS FMNAT activity, `O=C(O)c1cccnc1Nc1cccc(C(F)(F)F)c1` [HTS hit 11] returned an IC50 of 9 ± 1.3 µM. Further, the results for the remaining activity at 250 µM on CaFADS FMNAT activity and at CaFADS RFK activity were ≤ 5% and ≥ 75%, respectively. Further, the remaining activity at 50 µM on CaFADS FMNAT activity worked out at 34.6 ± 4.9%. Moreover, the MIC (in test [1]; in the test with S. pneumoniae ATCC 49619; in test [2] (setting [4])) was > 64 µM in each case.

On CaFADS FMNAT activity, `CCc1oc2ccccc2c1C(=O)c1cc(Br)c(O)c(Br)c1` [HTS hit 17, benzbromarone] yielded an IC50 of 12.8 ± 3.4 µM. Further, the remaining activity at 250 µM is ≤ 5% at CaFADS FMNAT activity and ≥ 75% at CaFADS RFK activity. The remaining activity at 50 µM on CaFADS FMNAT activity was 33.5 ± 10.1%. The MIC was > 64 µM in test [1], > 64 µM with S. pneumoniae ATCC 49619, 2 to 16 µM (≈ 0.848 to 6.79 µg/mL) in test [2] (setting [5]) and 8 µM (≈ 3.39 µg/mL) in test [2] (setting [4]).
